Test results taken from PubChem BioAssay (NCI).
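96-well plates; 48 h exposure; 5 concentrations. Endpoints by linear interpolation between flanking doses. Not reached: highest tested concentration assigned. TGI: concentration producing complete growth inhibition.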 Where a SMILES comes first, the peptide text is derived from it. [ ]: non-standard residue; d: D form. The star is where a group is joined. ξ: configuration not given here. ξF = NC(Cc1ccccc1)C(=O)O; Cbz = O=C(OCc1ccccc1)*; Aib = CC(C)(N)C(=O)O

How the values were obtained:
Assay in all cases: inhibition of tumour cell growth, NCI panel, 48 h
[1] = system: 786-0 renal
[2] = system: CCRF-CEM leukemia
[3] = system: M14 melanoma
[4] = system: MOLT-4 leukemia
[5] = system: NCI-H226 lung
[6] = system: NCI-H23 lung
[7] = system: OVCAR-3 ovarian
[8] = system: SK-MEL-28 melanoma
[9] = system: SN12C renal
[10] = system: UACC-257 melanoma

| Compound | TGI [1] | TGI [2] | TGI [3] | TGI [4] | TGI [5] | TGI [6] | TGI [7] | TGI [8] | TGI [9] | TGI [10] |
| --- | --- | --- | --- | --- | --- | --- | --- | --- | --- | --- |
| CCN(CC)Cc1nc2sc3c(c2c(=O)n1-c1ccccc1)CCCC3 | 32.2 µM | > 100 µM | 30.2 µM | 56.7 µM | 33 µM | 81.2 µM | 34.8 µM | > 100 µM | 37.8 µM | 47.5 µM |
| Cc1c(-c2c(C)c3ccccc3n2S(=O)(=O)c2ccccc2)n(S(=O)(=O)c2ccccc2)c2ccccc12 | 42.9 µM | > 100 µM | > 100 µM | > 100 µM | > 100 µM | > 100 µM | > 100 µM | > 100 µM | > 100 µM | > 100 µM |
| CC(C)(NC(=O)OCc1ccccc1)C(=O)NC(Cc1ccccc1)C(=O)O (stereo not given) (Cbz-[Aib]-[ξF]-OH) | > 100 µM | > 100 µM | > 100 µM | > 100 µM | > 100 µM | > 100 µM | > 100 µM | > 100 µM | > 100 µM | > 100 µM |
| COC(=O)c1cc(C)ccc1CC(Cc1cccc(C)c1)C(=O)OC (stereo not given) | > 100 µM | > 100 µM | > 100 µM | > 100 µM | > 100 µM | > 100 µM | > 100 µM | > 100 µM | > 100 µM | > 100 µM |
